According to article PMC7647111, “Antileishmanial compounds from Connarus suberosus: Metabolomics, isolation and mechanism of action” (PLoS ONE, 2020):
Several values for one entry are separate records, joined by “and”; a condition that tells them apart may be missing. Equal values may be shown once.

Tests used:
[1] = tested on: L. amazonensis amastigotes; experiment: L. amazonensis amastigotes assay (RFP parasites in peritoneal macrophages); format: cell-based, Leishmania amazonensis (IFLA/BR/1967/PH8)
Description: Peritoneal macrophages obtained from BALB/c mice were transferred to a 24-well plate (6x10^5 cells/well) in RPMI 1640 medium supplemented with 10% inactivated FBS and 20 mM L-glutamine, pH 7.2. The plate was incubated at 37°C in 5% CO2 for 24 h. After this period, macrophages were infected with L. amazonensis (IFLA/BR/1967/PH8) transfected with RFP in the stationary growth phase using a ratio 1:10 (macrophages/parasites) at 33°C for 4 h. The non-phagocytosed parasites were subsequently removed by extensive PBS wash, and samples added at non-toxic concentrations, in accordance with the cytotoxicity tests (100 μg/mL to 1.56 μg/mL) to determine the IC50 for the intracellular parasite. After 72 h, the supernatant was removed from the wells and 200 μL of deionized water added to each well to lyse the cell membrane. After lysis, the resulting supernatants were transferred to a black 96-well plate. The plate was read in a fluorescence spectrophotometer (FLx800, BioTek Instruments, Inc., Winooski, VT, USA) with 540/600 nm of excitation/emission. Wells containing macrophages infected with L. amazonensis (RFP) […] only were used as negative controls.

[2] = tested on: L. amazonensis promastigotes; experiment: Antiproliferation assay: L. amazonensis promastigotes (72 h), MTT; format: cell-based, Leishmania amazonensis (IFLA/BR/1967/PH8); settings: Leishmania amazonensis; 72 h exposure
Description: Leishmania amazonensis promastigotes (IFLA/BR/1967/PH8) for the 24 h exposure test were cultivated in RPMI 1640, supplemented with 20% v/v heat inactivated fetal bovine serum (FBS) and incubated at 26°C until near the end of the log growth phase. Leishmania amazonensis (IFLA/BR/1967/PH8) and L. infantum (MCAN/BR/2008/1112) promastigotes used in the 72 h exposure test were cultivated in Warren’s medium (containing brain heart infusion- BHI plus hemin and folic acid), supplemented with 10% FBS, 0.1% of the antibiotics: 100 UI/mL penicillin G and 0.1 mg/mL streptomycin. Leishmania amazonensis (IFLA/BR/1967/PH8) transfected with the red fluorescent protein (RFP) gene was cultured in M199 medium (containing 0.1 mmol/L adenine, 40 mmol/L hepes, 0.0005% hemin and 0.0002% biotin), supplemented with 10% FBS, and 0.1% of the antibiotic. Parasites were maintained at 25°C in a BOD incubator.
Extracts and isolated compounds were tested against L. amazonensis promastigotes (IFLA/BR/1967/PH8 strain - 2x10^5 cells/well) and L. infantum promastigotes (MCAN/BR/2008/1112 strain - 3x10^5 cells/well). The samples were solubilized in DMSO (<1%), serially diluted (100 μg/mL to 1.56 μg/mL) and tested in a 96-well plate to obtain a dose-response curve. Miltefosine and DMSO were used as positive and negative controls, respectively. After 72 h, 10 μL of 3-(4,5-dimethylthiazol-2-yl)-2,5-diphenyl tetrazolium bromide (5 mg/mL—MTT, Sigma-Aldrich) solution was added to each well and the plate returned to the incubator for an additional 4 h. To halt the reaction, 100 μL acidified isopropanol was added to each well. Plates were read at 570 nm in a microplate reader (Multiskan MS, LabSystems Oy, Helsinki, Finland).

L. infantum amastigotes = L. infantum amastigotes assay (Giemsa, infection index); format: cell-based, Leishmania infantum
Description: Peritoneal macrophages (6 x 10^5 cells) were plated on round glass coverslips within 24-well plates in RPMI 1640 medium supplemented with FBS and 20 mM L-glutamine, pH 7.2, and incubated for 24 h at 37°C in 5% CO2. Stationary-phase promastigotes (6 x 10^6 cells, at a ratio of 10 parasites per macrophage) were then added to the wells, and cultures incubated for 24 h at 37°C in 5% CO2. Non-internalized parasites were removed by extensive PBS solution washing and infected macrophages subsequently treated with nontoxic concentrations of: compound 3 (6.25 μg/mL to 0.18 μg/mL) or miltefosine (10.0 μg/mL to 0.6 μg/mL, positive control) for 72 h at 37°C in 5% CO2. After compound exposure, cells were fixed with absolute ethanol and stained with Giemsa. A total of 200 macrophages were counted under a light microscope. The infection index was determined by the […] percentage of infected macrophages multiplied by the mean number of amastigotes per macrophage out of 200 macrophages.

[3] = tested on: L. amazonensis promastigotes; experiment: Transmission electron microscopy (TEM); format: cell-based, Leishmania amazonensis; settings: 11.4 μM, 24 h
Description: Leishmania amazonensis promastigotes (10^7 cells/mL) were treated with compound 3 (11.4 μM) or incubated with controls (medium alone or medium plus 0.01% DMSO) for 24 h at 26°C. The parasites were subsequently washed in PBS, fixed in 2.5% glutaraldehyde (in 0.1 M sodium cacodylate buffer) at pH 7.2 for 45 min at room temperature. After fixation, the specimens were washed three times successively with 0.1 M sodium cacodylate buffer, and postfixed in 1% osmium tetroxide, 0.8% potassium ferricyanide, and 5 mM of the CaCl2 in 0.1 M of the sodium cacodylate buffer (0.1 M, pH 7.2). Dehydration was performed in acetone, followed by the embedding resin (Spur, Sigma-Aldrich®). Ultrathin sections were contrasted with uranyl acetate and lead citrate and observed under a transmission electron microscope (JEOL 1011).

[4] = tested on: L. amazonensis promastigotes; experiment: Mitochondrial membrane potential (MitoTracker); format: cell-based, Leishmania amazonensis; settings: 24 h; 2 at 33.8 μM, 3 at 11.4 μM; FCCP 5.0 μM for 10 min
Description: After 24 h of incubation at 25°C, the parasite concentration was adjusted to 5x10^6 cells/mL and stained with 500 nM MitoTracker (Invitrogen, Eugene, OR, USA) in the dark for 40 min at 37°C. After washing twice with PBS, samples were transferred in triplicate to a black 96-well plate, and fluorescence measured in a spectrofluorometer (FLx800, BioTek Instruments, Inc., Winooski, VT, USA) at 540/600 nm excitation/emission. […] Louis, MO, USA) for 10 min were used to obtain maximal mitochondrial depolarization (positive control).

Structure (SMILES): C=C[C@@H](c1cc(CC=C(C)C)ccc1O)c1cc(CC=C(C)C)c(OC)cc1O [Compound 3, connarin]
- SI (Selectivity Index) ([1]; CC50 macrophages / IC50 L. amazonensis amastigotes): 6.3
- IC50 ([1]; Leishmania amazonensis, Peritoneal macrophage, intracellular, 72 h): 1.13 µg/mL and 2.9 µM
- IC50 [2]: 4.5 µg/mL and 11.4 µM
- SI (Selectivity Index) (L. infantum amastigotes; L. infantum amastigotes): 2.4
- IC50 (L. infantum amastigotes; Leishmania infantum, intracellular, 72 h): 7.7 µM
- ultrastructural modification (TEM) [3]: showed lipid bodies and the presence of vacuoles
- reduction in mitochondrial membrane potential (ΔΨm) [4]: 26.5%
